30 molecules from patent publication US12378231B2, “Small molecules as monoacylglycerol lipase (MAGL) inhibitors, compositions and use thereof” (APOGEE PHARMACEUTICALS, INC., priority 2023, dated 2025) can be followed below.

The structures appear in SMILES notation. Read-outs that look alike come from different tables or passages of the source.

Test [1] addresses human recombinant MAGL (Homo sapiens (Human), UniProt Q99685). Briefly: In vitro inhibition of human recombinant MAGL activity (Cayman inhibitor screening kit, 4-nitrophenylacetate hydrolysis). The format is biochemical. The text has this:
The inhibitory effect of the synthetic chemicals on activity of human recombinant MAGL was studied using commercial inhibitor screening kit (Cayman Chemical). […] The absorbance of the yellow product can be analyzed using the plate reader. […]

Test [2] deals with human recombinant FAAH (Homo sapiens (Human), UniProt O00519). Description: In vitro inhibition of human recombinant FAAH activity (Cayman FAAH inhibitor screening kit, AMC arachidonoyl amide hydrolysis). The format is biochemical. From the text: In brief, FAAH hydrolyzes AMC arachidonoyl amide resulting in the release of the fluorescent product, while the inhibitor will inhibit the FAAH activity and thus reduce the fluorescent signal.

The mark [3] stands for this setting: human recombinant MAGL, read-out: Inhibition on MAGL activity (IC50).

Sequence of human recombinant FAAH (O00519 whole entry): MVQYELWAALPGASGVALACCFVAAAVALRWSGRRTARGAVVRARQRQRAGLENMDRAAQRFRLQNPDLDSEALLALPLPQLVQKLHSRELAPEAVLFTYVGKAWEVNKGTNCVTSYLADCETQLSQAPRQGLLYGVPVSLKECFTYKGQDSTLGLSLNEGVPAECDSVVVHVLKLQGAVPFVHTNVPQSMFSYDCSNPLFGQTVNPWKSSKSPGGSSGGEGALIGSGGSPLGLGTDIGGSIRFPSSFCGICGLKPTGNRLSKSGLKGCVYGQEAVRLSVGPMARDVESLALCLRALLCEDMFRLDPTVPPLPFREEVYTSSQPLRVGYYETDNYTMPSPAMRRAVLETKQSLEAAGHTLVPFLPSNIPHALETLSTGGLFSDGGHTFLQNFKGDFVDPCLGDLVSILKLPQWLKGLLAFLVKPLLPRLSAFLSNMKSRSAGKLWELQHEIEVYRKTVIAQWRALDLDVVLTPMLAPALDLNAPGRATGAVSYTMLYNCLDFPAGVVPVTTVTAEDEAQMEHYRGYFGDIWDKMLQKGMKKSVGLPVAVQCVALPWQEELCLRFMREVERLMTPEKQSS
Sequence of human recombinant MAGL (Q99685 whole entry): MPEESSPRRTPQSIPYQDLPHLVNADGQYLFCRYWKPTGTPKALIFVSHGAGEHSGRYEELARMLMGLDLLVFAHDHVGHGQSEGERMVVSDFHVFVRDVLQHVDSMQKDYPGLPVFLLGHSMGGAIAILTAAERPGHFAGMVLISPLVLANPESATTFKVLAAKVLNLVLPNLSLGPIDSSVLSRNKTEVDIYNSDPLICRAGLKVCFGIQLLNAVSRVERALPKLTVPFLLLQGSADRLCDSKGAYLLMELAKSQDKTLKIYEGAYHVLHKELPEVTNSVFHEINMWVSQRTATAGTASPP

What is called IC50 is the point on the concentration scale where inhibition reaches its midpoint. Consider `N#Cc1ncn(C(=O)N2CCN(C(c3ccc4c(c3)CCO4)c3ccc4c(c3)CCO4)CC2)n1` [Example 107, 1-(4-(bis(2,3-dihydrobenzofuran-5-yl)methyl)piperazine-1-carbonyl)-1H-1,2,4-triazole-3-carbonitrile], for which the IC50 in test [1] (setting [3]) is 1 to 10 nM; in test [2] it was 1000 to 10000 nM.

For the molecule `N#Cc1ncn(C(=O)N2CCC(=C(c3ccc4c(c3)COCO4)c3ccc4c(c3)COCO4)CC2)n1` [Example 124, 1-(4-(bis(4H-benzo[d][1,3]dioxin-6-yl)methylene)piperidine-1-carbonyl)-1H-1,2,4-triazole-3-carbonitrile], the results for the IC50 in test [1] (setting [3]) and in test [2] were 1 to 10 nM and 1000 to 10000 nM, respectively.

As to `O=C(N1CCN(C(c2ccc3c(c2)COCO3)c2ccc3c(c2)COCO3)CC1)n1nnc2cc(Br)ccc21` [Example 38, (4-(bis(4H-benzo[d][1,3]dioxin-6-yl)methyl)piperazin-1-yl)(5-bromo-1H-benzo[d][1,2,3]triazol-1-yl)methanone], the figures for the IC50 in test [1] (setting [3]) and in test [2] were 10 to 100 nM and above 50000 nM, respectively.

For `N#Cc1ncn(C(=O)N2C3CCC2CC(=C(c2ccc4c(c2)COCO4)c2ccc4c(c2)COCO4)C3)n1` [Example 127, 1-(3-(bis(4H-benzo[d][1,3]dioxin-6-yl)methylene)-8-azabicyclo[3.2.1]octane-8-carbonyl)-1H-1,2,4-triazole-3-carbonitrile], the figures for the IC50 in test [1] and in test [2] were 1 to 10 nM and above 50000 nM, respectively.

Take `O=C(On1nnc2cccnc21)N1CCN(C(c2ccc3c(c2)COCO3)c2ccc3c(c2)COCO3)CC1` [Example 23, 3H-[1,2,3]triazolo[4,5-b]pyridin-3-yl 4-(bis(4H-benzo[d][1,3]dioxin-6-yl)methyl)piperazine-1-carboxylate]: the IC50 in test [1] (setting [3]) is above 100 nM; in test [2], above 10000 nM.

As to `O=C(N1CCN(C(c2ccc3c(c2)COCO3)c2ccc3c(c2)COCO3)CC1)n1nnc2cc(F)ccc21` [Example 40, (4-(bis(4H-benzo[d][1,3]dioxin-6-yl)methyl)piperazin-1-yl)(5-fluoro-1H-benzo[d][1,2,3]triazol-1-yl)methanone], the values for the IC50 in test [1] (setting [3]) and in test [2] were 10 to 100 nM and 1000 to 20000 nM, respectively.

On to `N#Cc1ccc2nnn(C(=O)N3CC4(CC(OC(c5ccc6c(c5)COCO6)c5ccc6c(c5)COCO6)C4)C3)c2c1` [Example 59, 1-(6-(bis(4H-benzo[d][1,3]dioxin-6-yl)methoxy)-2-azaspiro[3.3]heptane-2-carbonyl)-1H-benzo[d][1,2,3]triazole-6-carbonitrile], for which the values for the IC50 in test [1] (setting [3]) and in test [2] were 10 to 100 nM and around 10000 nM, respectively.

Turning to `COc1ccc(C(c2ccc(OC)cc2)N2CCN(C(=O)n3cnc(C#N)n3)CC2)cc1` [Example 90, 1-(4-(bis(4-methoxyphenyl)methyl)piperazine-1-carbonyl)-1H-1,2,4-triazole-3-carbonitrile], the IC50 in test [1] (setting [3]) was in the range of 1 to 10 nM; in test [2], 1000 to 10000 nM.

With `O=C(Oc1c(F)c(F)c(F)c(F)c1F)C1CCN(C(c2ccc3c(c2)COCO3)c2ccc3c(c2)COCO3)CC1` [Example 54, pentafluorophenyl 1-(bis(4H-benzo[d][1,3]dioxin-6-yl)methyl)piperidine-4-carboxylate], the IC50 is above 100 nM in test [1] (setting [3]) and above 50000 nM in test [2].

As to `O=C(Oc1ccc([N+](=O)[O-])cc1)N1CCN(C(c2ccc3c(c2)COCO3)c2ccc3c(c2)COCO3)CC1` [Example 4, 4-nitrophenyl 4-(bis(4H-benzo[d][1,3]dioxin-6-yl)methyl)piperazine-1-carboxylate], the IC50 is 100 to 1000 nM in test [1] and above 10000 nM in test [2].

Regarding `COc1ccc(N(c2ccc(F)cc2)C2CCN(C(=O)n3nnc4ccc(C#N)cc43)CC2)cc1` [Example 65, 1-(4-((4-fluorophenyl)(4-methoxyphenyl)amino)piperidine-1-carbonyl)-1H-benzo[d][1,2,3]triazole-6-carbonitrile], the IC50 in test [1] (setting [3]) was 1 to 10 nM; in test [2] it was 100 to 1000 nM.

`COc1ccc(C(c2ccc(OC)cc2)N2CCN(C(=O)n3nnc4cc(C#N)ccc43)CC2)cc1` [Example 89, 1-(4-(bis(4-methoxyphenyl)methyl)piperazine-1-carbonyl)-1H-benzo[d][1,2,3]triazole-5-carbonitrile]: the IC50 in test [1] (setting [3]) is 10 to 100 nM; in test [2], 1000 to 10000 nM.

For the molecule `N#Cc1ncn(C(=O)N2CCC3(CCN(C(c4ccc5c(c4)COCO5)c4ccc5c(c4)COCO5)C3)C2)n1` (stereo not shown) [Example 85, 1-(7-(bis(4H-benzo[d][1,3]dioxin-6-yl)methyl)-2,7-diazaspiro[4.4]nonane-2-carbonyl)-1H-1,2,4-triazole-3-carbonitrile], the IC50 is 10 to 100 nM in test [1] (setting [3]) and 1000 to 10000 nM in test [2].

With `N#Cc1ncn(C(=O)N2CCC3(CC2)CCN(C(c2ccc4c(c2)COCO4)c2ccc4c(c2)COCO4)CC3)n1` [Example 79, 1-(9-(bis(4H-benzo[d][1,3]dioxin-6-yl)methyl)-3,9-diazaspiro[5.5]undecane-3-carbonyl)-1H-1,2,4-triazole-3-carbonitrile], the IC50 is 1 to 10 nM in test [1] (setting [3]) and around 50000 nM in test [2].

Consider `N#Cc1ccc2c(c1)nnn2C(=O)N1CCC(OC(c2ccc3c(c2)COCO3)c2ccc3c(c2)COCO3)CC1` [Example 57, 1-(4-(bis(4H-benzo[d][1,3]dioxin-6-yl)methoxy)piperidine-1-carbonyl)-1H-benzo[d][1,2,3]triazole-5-carbonitrile], for which the IC50 was in the range of 1 to 10 nM in test [1] (setting [3]) and 100 to 1000 nM in test [2].

In the case of `COc1ccc(N(c2ccc3c(c2)OCO3)C2CCN(C(=O)n3nnc4ccc(C#N)cc43)CC2)cc1` [Example 72, 1-(4-(benzo[d][1,3]dioxol-5-yl(4-methoxyphenyl)amino)piperidine-1-carbonyl)-1H-benzo[d][1,2,3]triazole-6-carbonitrile], the figures for the IC50 in test [1] (setting [3]) and in test [2] were 1 to 10 nM and 100 to 1000 nM, respectively.

As for `Cn1ncc2cc(C(=C3CCN(C(=O)n4nnc5ccccc54)CC3)c3ccc4c(cnn4C)c3)ccc21` [Example 122, (1H-benzo[d][1,2,3]triazol-1-yl)(4-(bis(1-methyl-1H-indazol-5-yl)methylene)piperidin-1-yl)methanone], the results for the concentration for half-maximal inhibition (IC50) in test [1] (setting [3]) and in test [2] were 10 to 100 nM and around 50000 nM, respectively.

For the molecule `CCC(CC)OC(=O)N1CCN(C(c2ccc3c(c2)COCO3)c2ccc3c(c2)COCO3)CC1` [Example 15, pentan-3-yl 4-(bis(4H-benzo[d][1,3]dioxin-6-yl)methyl)piperazine-1-carboxylate], the IC50 was above 100 nM in test [1] (setting [3]) and above 50000 nM in test [2].

Regarding `N#Cc1ccc(C(c2ccc(C#N)cc2)N2CCN(C(=O)n3nnc4ccc(C#N)cc43)CC2)cc1` [Example 100, 4,4′-((4-(6-cyano-1H-benzo[d][1,2,3]triazole-1-carbonyl)piperazin-1-yl)methylene)dibenzonitrile], the values for the IC50 in test [1] (setting [3]) and in test [2] were 1 to 10 nM and above 50000 nM, respectively.

Turning to `O=C(N1CCN(C(c2ccc3ncccc3c2)c2ccc3ncccc3c2)CC1)n1nnc2ccccc21` [Example 109, (1H-benzo[d][1,2,3]triazol-1-yl)(4-(di(quinolin-6-yl)methyl)piperazin-1-yl)methanone], the IC50 in test [1] (setting [3]) is 10 to 100 nM; in test [2] it was around 50000 nM.

`O=C(Nc1cccnc1)N1CCN(C(c2ccc3c(c2)COCO3)c2ccc3c(c2)COCO3)CC1` [Example 43, 4-(bis(4H-benzo[d][1,3]dioxin-6-yl)methyl)-N-(pyridin-3-yl)piperazine-1-carboxamide]: the IC50 in test [1] (setting [3]) is above 100 nM; in test [2], above 50000 nM.

Regarding `COc1cccc(C(c2cccc(OC)c2)N2CCN(C(=O)n3cnc(C#N)n3)CC2)c1` [Example 97, 1-(4-(bis(3-methoxyphenyl)methyl)piperazine-1-carbonyl)-1H-1,2,4-triazole-3-carbonitrile], the figures for the IC50 in test [1] (setting [3]) and in test [2] were 1 to 10 nM and 1000 to 10000 nM, respectively.

`COc1ccc(OC(=O)N2CCN(C(c3ccc4c(c3)COCO4)c3ccc4c(c3)COCO4)CC2)cc1` [Example 14, 4-methoxyphenyl 4-(bis(4H-benzo[d][1,3]dioxin-6-yl)methyl)piperazine-1-carboxylate]: the values for the IC50 in test [1] (setting [3]) and in test [2] were above 100 nM and above 50000 nM, respectively.

As to `N#Cc1ncn(C(=O)N2CCCC(=C(c3ccc4c(c3)COCO4)c3ccc4c(c3)COCO4)CC2)n1` [Example 128, 1-(4-(bis(4H-benzo[d][1,3]dioxin-6-yl)methylene)azepane-1-carbonyl)-1H-1,2,4-triazole-3-carbonitrile], the IC50 in test [1] (setting [3]) was 1 to 10 nM; in test [2], 1000 to 10000 nM.

As to `N#Cc1ccc2c(c1)nnn2C(=O)N1CCC(N(c2ccc3c(c2)OCO3)c2ccc3c(c2)OCO3)CC1` [Example 68, 1-(4-(bis(benzo[d][1,3]dioxol-5-yl)amino)piperidine-1-carbonyl)-1H-benzo[d][1,2,3]triazole-5-carbonitrile], the IC50 in test [1] (setting [3]) lay within 1 to 10 nM; in test [2], 100 to 1000 nM.

Consider `COc1ccc(C(c2cccnc2)N2CCN(C(=O)n3cnc(C#N)n3)CC2)cc1` (stereo not shown) [Example 104, 1-(4-((4-methoxyphenyl)(pyridin-3-yl)methyl)piperazine-1-carbonyl)-1H-1,2,4-triazole-3-carbonitrile], for which the values for the IC50 in test [1] (setting [3]) and in test [2] were 1 to 10 nM and 1000 to 10000 nM, respectively.

With `O=C(N1CCN(C(c2ccc3c(c2)COCO3)c2ccc3c(c2)COCO3)CC1)n1ncc2ccccc21` [Example 35, (4-(bis(4H-benzo[d][1,3]dioxin-6-yl)methyl)piperazin-1-yl)(1H-indazol-1-yl)methanone], the IC50 in test [1] (setting [3]) is above 100 nM; in test [2], above 50000 nM.

`N#Cc1ccc2c(c1)nnn2C(=O)N1CCC(N(c2cccnc2)c2ccc3c(c2)OCO3)CC1` [Example 75, 1-(4-(benzo[d][1,3]dioxol-5-yl(pyridin-3-yl)amino)piperidine-1-carbonyl)-1H-benzo[d][1,2,3]triazole-5-carbonitrile]: the IC50 in test [1] (setting [3]) was in the range of 1 to 10 nM; in test [2] it was 100 to 1000 nM.

As to `NC(=O)c1cccc(-c2cccc(OC(=O)NC3CCCCC3)c2)c1` [URB597, reference compound], in test [1] (setting [3]), the 50% inhibitory concentration (IC50) was above 50000 nM.

For the molecule `O=C(OC(C(F)(F)F)C(F)(F)F)N1CCN(Cc2ccc(C(F)(F)F)cc2N2CCCC2)CC1` [ABX-1431], the IC50 in test [2] was above 50000 nM.
